The record followed here is patent publication US20080194546A1, “Pyrido-, Pyrazo- and Pyrimido-Pyrimidine Derivatives as mTOR Inhibitors” (KuDOS Pharmaceuticals Limited, priority 2005, published 2008).

The test system of assay [1] is T47D cells. Kind of assay: Cell Proliferation Assay (GI50), sulforhodamine B (SRB) assay. It is filed as cell-based. To be noted: Homo sapiens, 120 hours, SRB. The gist of the method:
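T47D cells seeded at 2.5×10^3/well in RPMI + 10% FCS, dosed after adherence across a six-point semi-log range (e.g. 30 μM to 100 nM final) and grown 120 h at 37 °C. TCA-fixed, SRB-stained, OD read at 564 nm; GI50 taken from staining as percent of vehicle control.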
On the technique in general: The SRB assay estimates cell density from bound dye.

The test system of assay [2] is phosphorylation of Serine 473 in Akt in MDA-MB-468 cells. Put plainly: In Vitro phospho-Ser473 Akt Assay (Acumen Explorer). It is filed as cell-based. To be noted: Homo sapiens.
The target in assay [3] is T1, mTOR (Homo sapiens, UniProt P42345).
T1 construct: mTOR protein was isolated from HeLa cell cytoplasmic extract by immunoprecipitation; endogenous in cells; host or cells: HeLa cell cytoplasmic extract (immunoprecipitate)
Put plainly: Biological Assay: mTOR enzyme activity, mTOR immunoprecipitated from HeLa cell cytoplasmic extract, recombinant PHAS-1 as substrate. In kind it is biochemical. The following applies: Biological Assay.
From the text: For mTOR enzyme activity assays, mTOR protein was isolated from HeLa cell cytoplasmic extract by immunoprecipitation, and activity determined essentially as described previously using recombinant PHAS-1 as a substrate (ref. 21).

The target in assay [4] is recombinant mTOR (FLAG-tagged, amino acid residues 1362 to 2549) (Homo sapiens, UniProt P42345). Put plainly: Alternative Enzyme Assay: AlphaScreen, inhibition of phosphorylation by recombinant mTOR. To be noted: Alternative Enzyme Assay, single values; read-out: IC50. In kind it is biochemical. (In general: Bead proximity is the source of the signal in Alpha formats.)
Where [5] appears, read: upper bounds, read-out: IC50 values against mTOR.

Where two headings read alike, the source gives them in different places.

One may read the GI50 as the concentration at which growth is held to half of that of the control. Lower therefore signals more potent growth inhibition. As a reminder, the IC50 is the concentration needed to halve the response being measured. In turn, `C[C@@H]1CN(c2nc(N3CCOC[C@@H]3C)c3ccc(-c4ccsc4)nc3n2)C[C@H](C)O1` [Example 11k] returned a GI50 in assay [1] (single values) of 32 nM. The IC50 in assay [2] (MDA-MB-468, read-out: IC50 (phospho-Ser473 Akt assay)) was determined as 83 nM.

Turning to `COc1ccc(-c2ccc3c(N4CCOCC4)nc(N4C[C@@H](C)O[C@@H](C)C4)nc3n2)cc1CNC1CCC1` [Example 8a], the 50% growth inhibitory concentration (GI50) in assay [1] (upper bounds) is less than 300 nM. Also, in assay [3] (setting [5]), the IC50 was less than 100 nM.

`C[C@@H]1CN(c2nc(N3CCOCC3)c3ccc(-c4ccsc4)nc3n2)C[C@H](C)O1` [Comparative Example 1k, reference compound] came in with a GI50 in assay [1] (single values) of 268 nM. Besides, the IC50 in assay [3] (single values, read-out: IC50) is 33 nM; in assay [4], 225 nM; in assay [2] (MDA-MB-468 cells, single values, read-out: IC50 (phospho-Ser473 Akt assay)), 412 nM.

As to `CCOC(=O)C1CCCCC1NCc1cc(-c2ccc3c(N4CCOCC4)nc(N4C[C@@H](C)O[C@@H](C)C4)nc3n2)ccc1OC` (stereo partly shown) [Example 8ac], the GI50 in assay [1] is less than 1000 nM. Also, the IC50 in assay [3] (setting [5]) is less than 100 nM.
